Measurements: patent US12171755B2, “PAPD5 inhibitors and methods of use thereof” (Children's Medical Center Corporation, priority 2017, dated 2024)

Target: T1, PAPD5 (Homo sapiens, UniProt Q8NDF8)
T1 construct: made in house
Test: High-throughput luminescence (KinaseGlo) RNA polyadenylation assay, ATP utilization by recombinant PAPD5
Type: biochemical
Details: Table 4 (entries of Table 5), ratio of luminescence with inhibitor to DMSO; for Fold-change determined at compound concentration 33 μM: 33 μM compound; for Fold-change determined at compound concentration 100 μM: 100 μM compound, higher = higher inhibition
Procedure: Optimal conditions for an in vitro RNA polyadenylation assay using recombinant PAPD5, ATP and an oligonucleotide substrate were identified. The HTS assay involved ATP utilization by PAPD5, which reads out as a decreased luminescence signal produced by luciferase (KinaseGlo, Promega, Madison, WI).
100 nl of compound dissolved in DMSO was transferred to each well of the assay plate via pin transfer. For negative control wells, DMSO alone was added. Plates were gently vortexed for 5 seconds, then incubated for 2 hours at room temperature.
After 2 hours, 5 ul of luciferase (Promega KinaseGlo, Madison, WI) was added using a MultiDrop Combi (Thermo Fisher Scientific, Waltham, MA). The mixture was gently vortexed for 5 seconds and incubated for 10 minutes at room temperature. Plates were spun for 1 minute prior to luminescence measurements. Luminescent measurements were quantitated using a PerkinElmer EnVision™ plate reader.
˜100,000 compounds from various libraries at the ICCB-Longwood were screened in this manner in duplicate.
The fold change was the ratio of luminescence from a sample with inhibitor compared to that with DMSO. Thus, a higher number indicates higher inhibition.

T1 sequence (Q8NDF8 68-698 isoform Q8NDF8-5): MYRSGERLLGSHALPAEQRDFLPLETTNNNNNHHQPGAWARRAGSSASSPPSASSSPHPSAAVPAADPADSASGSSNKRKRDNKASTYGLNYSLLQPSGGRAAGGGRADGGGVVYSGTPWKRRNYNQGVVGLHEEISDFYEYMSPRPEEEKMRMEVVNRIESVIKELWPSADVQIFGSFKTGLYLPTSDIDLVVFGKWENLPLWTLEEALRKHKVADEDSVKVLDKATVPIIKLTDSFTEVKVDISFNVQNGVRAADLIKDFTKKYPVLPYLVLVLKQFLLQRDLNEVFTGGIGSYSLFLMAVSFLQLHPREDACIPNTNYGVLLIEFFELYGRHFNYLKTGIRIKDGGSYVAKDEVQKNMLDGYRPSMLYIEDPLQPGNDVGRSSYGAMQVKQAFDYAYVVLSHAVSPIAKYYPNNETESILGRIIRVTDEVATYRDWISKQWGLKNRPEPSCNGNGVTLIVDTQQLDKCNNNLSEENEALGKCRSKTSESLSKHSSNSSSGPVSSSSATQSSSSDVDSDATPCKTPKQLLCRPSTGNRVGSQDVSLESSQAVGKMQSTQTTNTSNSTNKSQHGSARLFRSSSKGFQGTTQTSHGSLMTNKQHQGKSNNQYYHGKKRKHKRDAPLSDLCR

| Compound | Fold-change determined at compound concentration 33 μM | Fold-change determined at compound concentration 100 μM |
| --- | --- | --- |
| CCOC(=O)C1CCN(c2nnc(Cc3ccncc3)c3ccccc23)CC1 [Entry 53, Ethyl 1-[4-(pyridin-4-ylmethyl)phthalazin-1-yl]piperidine-4-carboxylate] | 1.308 | 1.807 |
| Cc1ccc(-c2nnc(Nc3ccc(OCC(N)=O)cc3)c3ccccc23)cc1S(=O)(=O)N(C)C [Entry 54, 2-[4-({4-[3-(dimethylsulfamoyl)-4-methylphenyl]phthalazin-1-yl}amino)phenoxy]acetamide] | 1.324 | 1.562 |
| c1ccc(CC2CCN(c3nnc(Cc4ccncc4)c4ccccc34)CC2)cc1 [Entry 55, 1-(4-benzylpiperidin-1-yl)-4-(pyridin-4-ylmethyl)phthalazine] | 1.262 | 1.592 |
| Cc1ccc(-c2nnc(Nc3ccc(OCC(N)=O)cc3)c3ccccc23)cc1S(=O)(=O)NCC1CCCO1 (centres unmarked) [Entry 56, 2-[4-[[4-[4-methyl-3-(oxolan-2-ylmethylsulfamoyl)phenyl]phthalazin-1-yl]amino]phenoxy]acetamide] | 1.226 | 1.487 |
| Cc1ccc(CNC(=O)Nc2cn(CC(C)C)c(=O)c3ccccc23)cc1 [Entry 57, 1-[(4-methylphenyl)methyl]-3-[2-(2-methylpropyl)-1-oxoisoquinolin-4-yl]urea] | 1.142 | 1.518 |
| CC(C)Cn1cc(NC(=O)NCc2ccccc2)c2ccccc2c1=O [Entry 57a, 1-benzyl-3-[2-(2-methylpropyl)-1-oxoisoquinolin-4-yl]urea] | 1.099 | 1.574 |
| CC(C)Cn1cc(NC(=O)NCc2ccc(Cl)cc2)c2ccccc2c1=O [Entry 58, 1-[(4-chlorophenyl)methyl]-3-[2-(2-methylpropyl)-1-oxoisoquinolin-4-yl]urea] | 1.076 | 1.364 |
| CCOc1ccccc1CNC(=O)Nc1cn(CC(C)C)c(=O)c2ccccc12 [Entry 59, 1-[(2-ethoxyphenyl)methyl]-3-[2-(2-methylpropyl)-1-oxoisoquinolin-4-yl]urea] | 1.113 | 1.69 |
| COc1cccc(CNC(=O)Nc2cn(CC(C)C)c(=O)c3ccccc23)c1 [Entry 60, 1-[(3-methoxyphenyl)methyl]-3-[2-(2-methylpropyl)-1-oxoisoquinolin-4-yl]urea] | 1.088 | 1.621 |
| COc1ccc(CNC(=O)Nc2cn(CC(C)C)c(=O)c3ccccc23)c(OC)c1 [Entry 60a, 1-[(2,4-dimethoxyphenyl)methyl]-3-[2-(2-methylpropyl)-1-oxoisoquinolin-4-yl]urea] | 1.164 | 1.507 |
| CCc1cccc(NC(=O)Nc2cn(C)c(=O)c3ccccc23)c1 [Entry 61, 1-(3-ethylphenyl)-3-(2-methyl-1-oxoisoquinolin-4-yl)urea] | 1.07 | 1.235 |
| NC1CCN(c2nc3c(cc2F)c(=O)c(C(=O)O)cn3-c2ccc(F)cc2F)C1 (centres unmarked) [Entry 62, 7-(3-aminopyrrolidin-1-yl)-1-(2,4-difluorophenyl)-6-fluoro-4-oxo-1,4-dihydro-1,8-naphthyridine-3-carboxylic acid] | 1.298 | 1.41 |
| COc1cccc(CNC2=Nc3ccccc3NC23CCCCC3)c1 [Entry 63, N-[(3-methoxyphenyl)methyl]spiro[4H-quinoxaline-3,1′-cyclohexane]-2-amine] | 1.113 | 1.417 |
